Laboratory results from article PMC12036197, “Green synthesis of PEGylated iron oxide nanoparticles of Eriobotrya japonica leaves extract in combination with B3, against Plasmodium falciparum 3D7 strain” (Tropical Medicine and Health, 2025).

How the values were obtained:
[1] = tested on: Plasmodium falciparum 3D7; assay: Growth inhibition of Plasmodium falciparum 3D7 in RPMI 1640 culture medium, single drugs; assay type: cell-based; conditions: for Growth inhibition rate: highest growth inhibition, RPMI 1640, 24 h
Description: Plates with a capacity of 4 ml or T25 culture flasks were employed for the cultivation of parasites. CCM culture medium and blood (to sustain a hematocrit of 10% within the culture medium for the proliferation and replication of the parasite) were supplemented into the dishes. […] Parasites were multiplied in a CCM medium containing 10% hematocrit with O + human erythrocyte and albumax (0.5%) serving as a growth factor. The culture plates were incubated at 37 °c in a candle jar, with the fresh medium being replenished every 48 h. A thin blood smear was prepared from the sediment collected from each plate, followed by the quantification of parasites on 10,000 red blood cells.
To investigate the effect of drugs on the culture medium, two stages were conducted. The effect of the drug was performed when 80% of the parasites were in the ring stage and the parasitemia was 6%. […] In the first step, the drugs were treated separately and their IC50 was measured. For plant extract, dilutions of 100, 200, 400 and 800 µg/mL (dry extract) of culture medium were done in 12 wells of a 96-well plate (in triplicate).
For polyethylene glycol, dilutions of 10, 100, 1000 and 10000 µg/mL of culture medium were done in 12 wells of a 96-well plate (in triplicate). For the nanoparticle produced by the PEGylated green synthesis method (PEG-HNPs) dilutions of 50, 100, 200, and 400 µg/mL culture medium were done in 12 wells of 96-well plates (in triplicate). In the second step, the effect of the IC50 combination of drugs with each other was investigated by the Fix ratio method on the culture medium. In this way, the percentage ratio of 0, 10, 30, 50, 70, 90, and 100 of one drug was combined with another drug and it was given an effect on the culture medium, and their synergistic and antagonistic effect was investigated by affecting the amount of parasitemia. Negative control consisted of 15 μL of freshly washed RBC plus 85 μL of CCM. […] Statistical analysis was done using GraphPad prism9 software and the results were analyzed with one-way ANOVA. […]

red blood cells = assay: Hemolytic test; assay type: cell-based, human; conditions: 3 h incubation
Description: To conduct the hemolytic test on the hydroalcoholic extract of […], nicotinamide, and green-synthesized nanoparticles, 5 mL of fresh whole blood with heparin anticoagulant was obtained from a healthy volunteer. After centrifugation and washing with PBS, 1% blood suspension was prepared. In each well of three microplates, 100 µL of the prepared blood was added. Subsequently, 100 µL of the hydroalcoholic extract, nicotinamide, and green-synthesized nanoparticles with concentrations of 0.1, 1, 10, 50, 100 and 200 µg/mL, were added into the second to seventh wells of all three microplates, respectively. The first wells served as negative controls, containing an equal volume of PBS, while the eighth wells were positive controls, containing 100 µL of Triton X-100. After 3 h of incubation and centrifugation, the optical absorbance of the supernatant was measured at a wavelength of 540 nm. The percentage of drug-induced hemolysis was calculated using the following formula [28]: Percenthemolysis%=ODtest-ODnegativecontrol/ODpositivecontrol-ODnegativecontrol×100.
Investigating the hemolytic effect of Eriobotrya japonica hydroalcoholic extract (herbal extract), nicotinamide (NAM), and PEGylated green synthesized iron oxide nanoparticles (HNPs) on red blood cells at concentrations of 0.1, 1, 10, 50, 100 and 200 µg/mL were evaluated (Table 3). The optical absorbance of PBS was measured as negative control 0.01 and the optical absorbance of Triton X-100 was measured as positive control 1.00 (Fig. 5).

`CCN(CC)CCCC(C)Nc1ccnc2cc(Cl)ccc12` (stereo not drawn) [CQ, chloroquine diphosphate] was tested. Which inhibition at 8 µg/mL ([1]; Plasmodium falciparum, 3D7, 24 h, read-out: Growth inhibition rate) did it give?
Its inhibition at 8 µg/mL is 95%.

For `NC(=O)c1cccnc1` [NAM, nicotinamide], which “Percentage of drug hemolysis” value (red blood cells; drug concentration 0.1 µg/mL) is on record?
The value was 1%.

What about the “Percentage of drug hemolysis” value (red blood cells; drug concentration 1 µg/mL) of the same compound?
Its value is 2%.

What about the “Percentage of drug hemolysis” value (red blood cells; drug concentration 10 µg/mL) of the same compound?
The value was 4%.

And the “Percentage of drug hemolysis” value (red blood cells; drug concentration 50 µg/mL)?
Its value is 6%.

And the “Percentage of drug hemolysis” value (red blood cells; drug concentration 100 µg/mL)?
The value was 8%.

And the “Percentage of drug hemolysis” value (red blood cells; drug concentration 200 µg/mL)?
Its value is 9%.

What about the Growth inhibition rate ([1]; concentration 3000 µg/ml) of the same compound?
The Growth inhibition rate was 94%.

Which Growth inhibition rate ([1]; concentration 10000 µg/ml) does the source give for polyethylene glycol 600 [PEG] here?
Its Growth inhibition rate is 71%.
